Source: patent US20180333461A1, “METHODS AND COMPOSITIONS FOR TREATING OR PREVENTING FLAVIVIRUS INFECTIONS” (THE UNIVERSITY OF QUEENSLAND, priority 2014, published 2018)
Entries after “also recorded” stand apart in the source; their conditions may differ.

Tests used:
human PBMC = assay: IL-6 secretion by human PBMC (ELISA), with or without polymyxin B pre-incubation; type: cell-based; conditions: 24 hours
Method: FIG. 1 is a graphical representation showing that Dengue NS1 activates human and mouse innate immune responses. (A) NS1 induces IL-6 secretion by human PBMC. Cells were treated for 24 hrs. with LPS (100 ng/mL), NS1 (40 μg/mL), or an analogous NS1 sample immune-depleted with anti-NS1 or anti-E antibody. IL-6 was measured by ELISA. Data shown is mean±SD of three donors. The inset immunoblot is of the supernatant fraction following immuno-depletion using anti-NS1 antibody or isotype-matched control antibody. […] ELAM promoter activity was monitored as in B, in response to LPS (100 ng/mL), NS1 (40 μg/mL), NS1 immuno-depleted using anti-NS1 antibody or isotype-matched control antibody (confirmed in western blot inset).
NS1 and LPS were pre-incubated for 30 minutes with or without polymyxin B, then added to PBMC and incubated for 24 hours. […] Released IL-6 was measured by ELISA. […] After 1 hour of treatment, CSF1R levels were determined by flow cytometry, and the % of cells with high levels of receptor are shown. […]
Human PBMCs from healthy donors were seeded at 1×10^6 cells per well in 12 well plates prior to incubation with NS1 or LPS. […] The level of IL-6 production was quantitated ELISA (R & D Systems) according to the protocol recommended by the manufacturer.

[1] = tested on: bone marrow-derived macrophages (BMM); assay: CSF-1R down-modulation assay on BMMs (flow cytometry); type: cell-based, mouse; conditions: 1 hour treatment
Method: NS1 and LPS were pre-incubated for 30 minutes with or without polymyxin B, then added to PBMC and incubated for 24 hours. The final concentration of polymyxin B was 25 μg/mL, with varying concentrations of LPS (0.1, 1, 10 ng/mL) and NS1 (5, 10, 20 and 40 μg/mL). Released IL-6 was measured by ELISA. […] NS1 and LPS were pre-incubated for 30 minutes with or without polymyxin B then added to BMMs that had been starved of CSF1 overnight. The final concentration of polymyxin B was 25 μg/mL, with LPS (10-fold dilutions from 100 ng/mL) and NS1 (2′-fold dilutions from 10 μg/mL). After 1 hour of treatment, CSF1R levels were determined by flow cytometry, and the % of cells with high levels of receptor are shown. Data are the mean±SD from three (A) or five (B) independent experiments.
FIG. 3 is a graphical representation showing that NS1 from several sources has immunostimulatory activity. (A) NS1 immuno-depletion prevents the down-modulation of surface CSF1R by S2 cell-expressed NS1. […] The final concentration of 5 μg/mL NS1 (as quantified by capture-ELISA) represents approximately 4-fold higher levels than produced in the CHO cell medium. […]
FIG. 5 is a graphical representation showing that NS1 activates cells via TLR4. […] CSF1R on wild-type C57BL/6 BMM (WT), tlr4^−/− and MyD88^−/−/trif^−/− BMMs was measured after 1 hour treatment with CSF1 (10^4 U/mL), LPS (100 ng/mL) and NS1 (10 μg/mL). […]

Substance: polymyxin B
- Effect on LPS-induced IL-6 in PBMC (human PBMC; polymyxin B 25 μg/mL pre-incubated with LPS 30 min, LPS ≤10 ng/mL): inhibited
- Effect on NS1-induced IL-6 in PBMC (human PBMC; polymyxin B 25 μg/mL pre-incubated with NS1 (5-40 μg/mL) 30 min): does not block; also recorded: unaffected
- Effect on LPS-induced loss of surface CSF1R on BMMs ([1]; polymyxin B 25 μg/mL pre-incubated with LPS 30 min): sensitive
- Effect on NS1-induced loss of surface CSF1R on BMMs ([1]; polymyxin B 25 μg/mL pre-incubated with NS1 30 min): does not block
